Results on 12 compounds are retold here after ChEMBL document CHEMBL1201862, “PubChem BioAssay data set” (2004).

Assay [1] concerns the target 72 kDa type IV collagenase (Homo sapiens, UniProt P08253). As to the kind of experiment: Dose Response validation of uHTS RPN11 inhibitor hits using a MMP-2 Fluorescence assay. In kind it is functional.
For another assay, the target named is Prothrombin (Bos taurus, UniProt P00735). Briefly: thrombin protease inhibitors – biochemical, fluorescence polarization, uHTS hits, dose response (AID 602369). It is filed as functional.
The target of assay [2] is 26S proteasome non-ATPase regulatory subunit 14 (Homo sapiens, UniProt O00487). As to the kind of experiment: inhibition of proteasome subunit RPN11 – biochemical, fluorescence polarization, uHTS hits, confirmation (AID 602368). In kind it is functional.
Sequence of 26S proteasome non-ATPase regulatory subunit 14 (O00487 whole entry): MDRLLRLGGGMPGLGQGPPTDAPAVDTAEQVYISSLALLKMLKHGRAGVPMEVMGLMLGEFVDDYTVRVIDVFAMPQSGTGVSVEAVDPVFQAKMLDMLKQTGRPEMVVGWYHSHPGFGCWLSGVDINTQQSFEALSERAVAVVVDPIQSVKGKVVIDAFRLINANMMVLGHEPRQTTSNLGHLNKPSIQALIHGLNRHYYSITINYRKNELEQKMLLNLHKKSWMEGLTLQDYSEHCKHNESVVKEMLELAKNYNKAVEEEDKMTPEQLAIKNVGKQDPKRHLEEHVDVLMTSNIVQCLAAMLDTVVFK
The target in assay [3] is T1, DNA repair and recombination protein RAD54-like (Homo sapiens, UniProt Q92698).
T1 sequence (Q92698 whole entry): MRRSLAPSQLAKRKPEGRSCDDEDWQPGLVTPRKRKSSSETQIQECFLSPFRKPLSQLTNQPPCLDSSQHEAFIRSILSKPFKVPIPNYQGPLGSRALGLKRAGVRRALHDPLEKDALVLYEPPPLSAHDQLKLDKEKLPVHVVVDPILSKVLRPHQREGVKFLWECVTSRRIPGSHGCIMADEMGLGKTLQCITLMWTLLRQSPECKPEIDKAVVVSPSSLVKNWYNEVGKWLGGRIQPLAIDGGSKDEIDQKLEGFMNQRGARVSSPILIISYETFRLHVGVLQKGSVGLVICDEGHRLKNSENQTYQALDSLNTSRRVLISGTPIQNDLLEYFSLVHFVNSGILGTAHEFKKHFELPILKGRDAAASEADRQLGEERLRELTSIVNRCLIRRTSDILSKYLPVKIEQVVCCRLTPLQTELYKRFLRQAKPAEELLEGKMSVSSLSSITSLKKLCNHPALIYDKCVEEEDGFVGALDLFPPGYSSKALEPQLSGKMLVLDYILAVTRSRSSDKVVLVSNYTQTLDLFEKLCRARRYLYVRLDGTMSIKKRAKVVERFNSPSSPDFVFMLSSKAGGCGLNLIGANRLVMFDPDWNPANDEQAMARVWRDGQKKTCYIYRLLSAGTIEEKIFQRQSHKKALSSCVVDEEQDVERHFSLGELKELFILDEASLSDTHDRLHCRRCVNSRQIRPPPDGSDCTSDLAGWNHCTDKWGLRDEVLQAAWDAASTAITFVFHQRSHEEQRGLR
Briefly: RAD54 Holliday junction migration blockers – biochemical, fluorescence, cherry-picked samples, dose series, confirmation (AID 651657). It is filed as functional.

A further assay concerns the target Cytochrome P450 3A4 (Homo sapiens, UniProt P08684).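 Further: CYP3A4 tested as one member of a cytochrome P450 panel screen.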
Assay [4] has as its target ATP-dependent molecular chaperone HSP82 (Candida albicans (strain WO-1) (Yeast), UniProt C4YTQ8). As to the kind of experiment: steroid-induced GRE reporter decrease in yeast – S. cerevisiae, luminescence, Hsp90 inhibitor project, dose response (AID 2400).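 Further: beta-galactosidase luminescence from glucocorticoid response element reporter as proxy for Hsp90 function; inhibitor potency where signal loss means Hsp90 inhibition.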 It is filed as functional, cell-based.
Assay [5] in a line: fluconazole-exposed Candida albicans growth modulators – fluorescence, retest, confirmation (AID 2467). In kind it is functional, cell-based.
The next assay addresses Cytochrome P450 2D6 (Homo sapiens, UniProt P10635).
The target of assay [6] is T2, Serine/threonine-protein phosphatase (Candida dubliniensis (strain CD36 / CBS 7987 / NCPF 3949 / NRRLY-17841) (Yeast), UniProt B9W6M3).
T2 sequence (B9W6M3 whole entry): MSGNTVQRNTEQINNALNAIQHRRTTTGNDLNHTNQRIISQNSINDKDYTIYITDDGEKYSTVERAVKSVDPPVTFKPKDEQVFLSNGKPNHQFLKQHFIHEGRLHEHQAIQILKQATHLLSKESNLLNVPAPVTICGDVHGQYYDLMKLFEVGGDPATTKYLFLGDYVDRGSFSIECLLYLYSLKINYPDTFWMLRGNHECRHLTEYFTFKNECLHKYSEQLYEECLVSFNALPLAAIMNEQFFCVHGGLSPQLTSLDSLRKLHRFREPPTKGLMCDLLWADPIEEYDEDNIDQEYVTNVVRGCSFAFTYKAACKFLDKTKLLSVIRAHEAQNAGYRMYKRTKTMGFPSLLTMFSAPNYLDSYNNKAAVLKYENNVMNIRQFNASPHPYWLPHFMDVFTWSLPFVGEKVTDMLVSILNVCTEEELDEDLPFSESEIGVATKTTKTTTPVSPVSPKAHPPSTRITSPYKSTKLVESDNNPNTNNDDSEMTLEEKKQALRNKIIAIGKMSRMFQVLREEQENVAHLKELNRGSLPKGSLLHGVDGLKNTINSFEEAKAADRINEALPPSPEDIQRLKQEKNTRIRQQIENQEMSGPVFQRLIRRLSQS
As to the kind of experiment: blockers of CaCl2-induced CDRE-lacZ signaling – S. cerevisiae, luminescence, secondary, dose response (AID 2388).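 Further: yeast reporter cells carrying a calcineurin-responsive lacZ construct stimulated with calcium chloride; luminescent beta-galactosidase reporter signal in whole cells rather than isolated phosphatase activity; potency for inhibition where a drop in reporter signal means calcineurin blockade.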 In kind it is functional, cell-based.

Assay [7] in a line: NIH-3T3 fibroblast cytotoxicity, dose response, cytotoxicity control, cell-based, fluorescence, Alamar Blue, secondary assay (AID 2327).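 Further: NIH-3T3 mouse fibroblasts cultured with fluconazole at 8 µg/mL.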 In kind it is functional.
Assay [8] concerns the target T3, DNA repair protein RAD52 homolog (Homo sapiens, UniProt P43351).
T3 sequence (P43351 whole entry): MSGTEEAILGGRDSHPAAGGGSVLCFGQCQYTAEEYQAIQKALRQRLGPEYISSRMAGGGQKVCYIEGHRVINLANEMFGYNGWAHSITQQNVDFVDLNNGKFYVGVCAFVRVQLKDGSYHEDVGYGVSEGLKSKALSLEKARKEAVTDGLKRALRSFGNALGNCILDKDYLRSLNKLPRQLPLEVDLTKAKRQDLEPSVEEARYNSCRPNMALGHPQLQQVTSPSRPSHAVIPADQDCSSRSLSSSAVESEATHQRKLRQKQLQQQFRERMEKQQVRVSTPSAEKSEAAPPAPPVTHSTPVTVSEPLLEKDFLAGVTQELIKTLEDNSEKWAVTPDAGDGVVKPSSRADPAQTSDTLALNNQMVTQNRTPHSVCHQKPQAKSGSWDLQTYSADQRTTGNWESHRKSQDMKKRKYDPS
It is filed as functional, biochemical.

A short description of assay [9]: HIV-1 AD8 envelope cell-cell fusion blockers – cherry-pick, dose response (AID 652062).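 Further: luciferase signal from cell-cell fusion driven by HIV-1 clade B AD8 Env; potency is for inhibitors of fusion seen as a drop in luminescence.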 It is filed as functional, cell-based.
Assay [10] is described as follows: blockers of HIV-1 ZM109 envelope-driven cell-cell fusion – HeLa effector, CEM target cells, luciferase, cherry-pick, dose response (AID 652058).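 Further: luciferase signal from HIV-1 Env mediated cell-cell fusion of effector and target cells.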 In kind it is functional, cell-based.
A short description of assay [11]: off-target signal loss in HeLa-CEM21 co-culture – HeLa F-luc CTL cells, cherry-picked, counter-screen for HIV-1 Env fusion inhibitor project, dose response (AID 652040).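 Further: potency for signal decrease marking cytotoxic or nonspecific inhibition.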 It is filed as functional, cell-based.
Assay [12] can be described thus: blockers of HIV-1 envelope-mediated cell-cell fusion – cherry-pick, dose response (AID 652057). In kind it is functional, cell-based.
In a further assay the test system is SN12K1. As to the kind of experiment: cells. In kind it is functional.
A further assay concerns P388/ADR. Briefly: cells. In kind it is functional. As to conditions: Mus musculus.
The next assay has as its system HEK293. Briefly: EBV LMP1 TES2 canonical NF-kB signalling blockers – cell-based, HEK293, luciferase, cherry-pick, dose response (AID 588343). As to conditions: Homo sapiens. It is filed as functional.
Assay [13] in a line: cells. It is filed as functional, cell-based.
The target of the next assay is Nonstructural protein 1 (Influenza A virus, UniProt Q194T2). It is filed as functional, Influenza A virus (A/California/07/2009(H1N1)).
Sequence of Nonstructural protein 1 (Q194T2 whole entry): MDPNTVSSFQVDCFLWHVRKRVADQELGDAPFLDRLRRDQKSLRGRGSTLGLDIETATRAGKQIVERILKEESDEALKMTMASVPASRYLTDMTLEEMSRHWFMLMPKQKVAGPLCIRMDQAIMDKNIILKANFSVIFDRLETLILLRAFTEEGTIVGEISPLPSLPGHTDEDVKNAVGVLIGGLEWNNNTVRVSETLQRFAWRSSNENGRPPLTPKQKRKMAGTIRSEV
Assay [14] in a line: cells. It is filed as functional, cell-based. This is another data set of the same source.
Assay [15] has as its target T4, Rac GTPase-activating protein 1 (Homo sapiens, UniProt Q9H0H5).
T4 sequence (Q9H0H5 whole entry): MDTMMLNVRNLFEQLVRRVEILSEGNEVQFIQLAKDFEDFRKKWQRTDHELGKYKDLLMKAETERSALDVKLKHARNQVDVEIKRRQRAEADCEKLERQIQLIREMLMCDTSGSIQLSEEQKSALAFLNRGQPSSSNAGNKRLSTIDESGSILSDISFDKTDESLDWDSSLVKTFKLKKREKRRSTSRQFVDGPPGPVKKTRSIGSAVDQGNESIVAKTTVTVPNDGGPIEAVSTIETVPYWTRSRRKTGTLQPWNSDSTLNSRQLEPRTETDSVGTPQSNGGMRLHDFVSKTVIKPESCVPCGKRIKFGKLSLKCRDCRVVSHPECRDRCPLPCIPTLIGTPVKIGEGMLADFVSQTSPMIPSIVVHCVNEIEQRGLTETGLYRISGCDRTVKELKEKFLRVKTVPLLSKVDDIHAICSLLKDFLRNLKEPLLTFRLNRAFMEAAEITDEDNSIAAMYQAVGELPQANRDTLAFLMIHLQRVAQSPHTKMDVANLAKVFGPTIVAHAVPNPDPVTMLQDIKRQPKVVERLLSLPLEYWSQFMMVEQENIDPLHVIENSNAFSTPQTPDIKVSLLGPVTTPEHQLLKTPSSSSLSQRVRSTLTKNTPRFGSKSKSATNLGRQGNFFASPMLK
As to the kind of experiment: blockers of MgcRacGAP-driven Rac1 GTP hydrolysis – biochemical, ADP Hunter fluorescence, primary and confirmatory, confirmation (AID 624330). In kind it is functional.

The target in the next assay is Large T antigen (Simian virus 40, UniProt P03070). In kind it is functional, Betapolyomavirus macacae.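 Further: Confirmatory-stage PubChem screen for compounds that inhibit SV40 T antigen.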
Sequence of Large T antigen (P03070 whole entry): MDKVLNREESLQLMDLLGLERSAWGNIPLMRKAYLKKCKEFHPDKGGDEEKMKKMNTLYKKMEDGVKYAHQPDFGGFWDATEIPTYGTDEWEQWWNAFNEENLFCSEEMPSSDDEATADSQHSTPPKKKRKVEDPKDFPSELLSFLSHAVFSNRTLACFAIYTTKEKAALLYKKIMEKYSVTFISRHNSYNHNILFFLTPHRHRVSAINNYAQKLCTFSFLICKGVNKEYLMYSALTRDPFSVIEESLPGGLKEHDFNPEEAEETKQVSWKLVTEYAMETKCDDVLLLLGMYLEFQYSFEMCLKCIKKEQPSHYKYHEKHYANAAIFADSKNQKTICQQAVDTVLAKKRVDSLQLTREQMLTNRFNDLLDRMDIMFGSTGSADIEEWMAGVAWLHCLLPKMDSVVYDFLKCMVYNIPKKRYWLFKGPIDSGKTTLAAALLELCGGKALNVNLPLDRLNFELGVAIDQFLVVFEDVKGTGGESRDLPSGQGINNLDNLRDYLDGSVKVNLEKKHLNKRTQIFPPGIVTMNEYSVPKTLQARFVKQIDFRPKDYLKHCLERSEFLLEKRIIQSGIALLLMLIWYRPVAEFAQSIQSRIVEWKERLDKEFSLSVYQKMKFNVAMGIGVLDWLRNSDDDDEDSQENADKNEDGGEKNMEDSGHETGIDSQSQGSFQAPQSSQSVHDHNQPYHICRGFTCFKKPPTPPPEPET

Calls of active or inactive are those of the source.

Sequence of 72 kDa type IV collagenase (P08253 whole entry): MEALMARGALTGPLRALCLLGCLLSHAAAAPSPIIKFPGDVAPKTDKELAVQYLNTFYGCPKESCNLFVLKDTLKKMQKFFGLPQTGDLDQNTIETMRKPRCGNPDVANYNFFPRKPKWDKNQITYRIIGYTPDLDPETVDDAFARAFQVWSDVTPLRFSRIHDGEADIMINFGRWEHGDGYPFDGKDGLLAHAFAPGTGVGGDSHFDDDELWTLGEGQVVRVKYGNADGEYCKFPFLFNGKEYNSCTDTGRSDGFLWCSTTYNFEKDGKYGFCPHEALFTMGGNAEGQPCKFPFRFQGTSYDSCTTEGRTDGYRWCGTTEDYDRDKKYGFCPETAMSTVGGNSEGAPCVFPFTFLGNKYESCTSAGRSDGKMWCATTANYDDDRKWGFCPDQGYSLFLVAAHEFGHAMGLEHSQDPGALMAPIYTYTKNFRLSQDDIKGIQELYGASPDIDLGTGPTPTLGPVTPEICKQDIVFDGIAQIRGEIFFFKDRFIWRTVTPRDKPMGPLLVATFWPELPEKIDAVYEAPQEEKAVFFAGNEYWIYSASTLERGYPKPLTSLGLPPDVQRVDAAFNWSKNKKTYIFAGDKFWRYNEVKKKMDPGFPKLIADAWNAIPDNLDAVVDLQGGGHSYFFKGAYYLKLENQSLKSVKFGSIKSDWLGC
Sequence of ATP-dependent molecular chaperone HSP82 (C4YTQ8 whole entry): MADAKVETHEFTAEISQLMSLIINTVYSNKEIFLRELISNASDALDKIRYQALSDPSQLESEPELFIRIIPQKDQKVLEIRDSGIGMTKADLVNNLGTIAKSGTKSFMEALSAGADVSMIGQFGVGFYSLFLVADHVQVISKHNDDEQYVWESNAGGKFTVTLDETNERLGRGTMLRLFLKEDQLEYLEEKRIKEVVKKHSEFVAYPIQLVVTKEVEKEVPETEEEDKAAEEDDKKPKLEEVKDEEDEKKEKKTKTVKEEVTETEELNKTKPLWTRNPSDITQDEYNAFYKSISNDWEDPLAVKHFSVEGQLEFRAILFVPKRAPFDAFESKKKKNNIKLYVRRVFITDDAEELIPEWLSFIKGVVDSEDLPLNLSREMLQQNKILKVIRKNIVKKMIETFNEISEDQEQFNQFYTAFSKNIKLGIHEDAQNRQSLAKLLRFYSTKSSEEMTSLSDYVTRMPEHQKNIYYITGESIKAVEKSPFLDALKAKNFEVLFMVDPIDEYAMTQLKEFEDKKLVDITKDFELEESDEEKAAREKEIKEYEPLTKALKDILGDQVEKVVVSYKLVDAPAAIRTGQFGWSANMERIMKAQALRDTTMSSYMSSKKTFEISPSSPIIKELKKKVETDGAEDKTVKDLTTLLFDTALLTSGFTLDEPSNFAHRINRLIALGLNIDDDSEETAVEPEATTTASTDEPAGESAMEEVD
Sequence of Cytochrome P450 3A4 (P08684 whole entry): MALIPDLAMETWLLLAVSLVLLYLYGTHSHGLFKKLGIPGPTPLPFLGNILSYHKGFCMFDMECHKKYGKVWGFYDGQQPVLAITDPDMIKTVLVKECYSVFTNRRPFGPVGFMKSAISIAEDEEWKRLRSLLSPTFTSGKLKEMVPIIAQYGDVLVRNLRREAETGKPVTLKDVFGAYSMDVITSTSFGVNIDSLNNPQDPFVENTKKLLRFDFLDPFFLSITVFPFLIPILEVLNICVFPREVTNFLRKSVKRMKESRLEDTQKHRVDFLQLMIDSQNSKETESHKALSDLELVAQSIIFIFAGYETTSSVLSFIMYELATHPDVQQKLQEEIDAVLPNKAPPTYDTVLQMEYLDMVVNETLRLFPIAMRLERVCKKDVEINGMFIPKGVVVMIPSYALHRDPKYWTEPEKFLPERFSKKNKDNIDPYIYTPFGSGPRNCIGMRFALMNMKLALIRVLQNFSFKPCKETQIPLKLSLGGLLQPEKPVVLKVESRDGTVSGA
Sequence of Cytochrome P450 2D6 (P10635 whole entry): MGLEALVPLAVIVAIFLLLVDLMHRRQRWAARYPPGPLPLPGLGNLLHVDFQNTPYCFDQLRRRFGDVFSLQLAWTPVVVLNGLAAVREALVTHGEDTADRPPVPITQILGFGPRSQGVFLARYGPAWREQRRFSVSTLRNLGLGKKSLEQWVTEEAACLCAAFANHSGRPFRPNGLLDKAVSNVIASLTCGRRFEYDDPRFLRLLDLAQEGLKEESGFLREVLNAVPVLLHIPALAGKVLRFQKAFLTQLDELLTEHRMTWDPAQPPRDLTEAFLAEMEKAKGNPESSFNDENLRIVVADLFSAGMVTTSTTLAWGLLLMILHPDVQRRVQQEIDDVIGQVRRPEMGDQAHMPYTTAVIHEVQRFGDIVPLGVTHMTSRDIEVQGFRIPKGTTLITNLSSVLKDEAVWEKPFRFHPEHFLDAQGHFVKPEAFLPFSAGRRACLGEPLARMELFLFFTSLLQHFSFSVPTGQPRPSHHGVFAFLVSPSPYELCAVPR

As for `CC(C)(C)c1nc2ccccc2c2nnc(SCC(=O)Nc3nc4ccccc4s3)n12`, the IC50 in assay [1] was > 100 µM (inactive); on Prothrombin, > 100 µM (inactive); in assay [2] it was 3.79 µM (active).

In the case of `CCN(CC)CCN(C(=O)c1ccc2ncsc2c1)c1nc2cc3c(cc2s1)OCO3`, the AC50 in assay [3] was 51.9 µM (active).

In the case of `Cc1ccc2[nH]c(/C(C#N)=C\c3ccc(OC(=O)c4cccs4)cc3)nc2c1`, the values for the half-maximal activity concentration (AC50) at Cytochrome P450 3A4 and on Cytochrome P450 2D6 were 14.1 µM (inconclusive) and 3.55 µM (inconclusive), respectively. Also, the 50% effective concentration (EC50) in assay [4] was 23.3 µM (active); in assay [5], 5.29 µM (active); in [6], > 180 µM (inactive); in assay [7], 17.2 µM (inconclusive).

Consider `Cn1c2ccccc2c(=O)c2cc(NCCCN3CCOCC3)ccc21`, for which the AC50 in [8] was 7.92 µM (active); in assay [3] it was 11.7 µM (active).

With `O=C(N(c1ccccn1)c1ccccn1)C12CC3CC(CC(Cl)(C3)C1)C2`, the half-maximal activity concentration (AC50) was 9.92 µM (active) in [9], 4.96 µM (active) in assay [10], 6.95 µM (active) in assay [11] and 5.04 µM (active) in assay [12].

Turning to `Cn1c(=O)oc2cc(S(=O)(=O)N3CCN(c4ccccc4F)CC3)ccc21`, the IC50 in assay [1] is > 100 µM (inactive); on Prothrombin it was 52.9 µM (active); in assay [2], 20.7 µM (active).

With `CC[C@]1(C(=O)OC)[C@H]2C(=O)N(Cc3ccccc3)C(=O)[C@H]2[C@H]2CN=C(SCc3ccccc3)N21`, the AC50 in assay [9] was 1.68 µM (active); in assay [10], 1.16 µM (active); in [11], 1.55 µM (active); in [12] it was 1.01 µM (active).

Turning to `CCN(CC)CC[n+]1ccc2c(C)c3[nH]c4ccccc4c3c(C)c2c1`, the figures for the 50% growth inhibitory concentration (GI50) in the assay on SN12K1 and with P388/ADR were 0.137 µM (active) and 29.9 µM (inactive), respectively.

Consider `COc1ccc(NC(=O)c2cccc3c(-c4cccnc4)coc23)cc1`, for which the IC50 in assay [1] was > 100 µM (inactive); on Prothrombin it was > 100 µM (inactive); in assay [2], 15.2 µM (active).

Consider `COc1ccc(NC(=O)Nc2ccc3c(c2)CC(=O)N([C@H](C)CO)C[C@H](C)[C@H](CN(C)S(=O)(=O)c2cccs2)O3)cc1`, for which the AC50 in [9] is 5.21 µM (active); in [10] it was 1.55 µM (active); in assay [12], 0.96 µM (active).

In the case of `CCN(CC)S(=O)(=O)c1ccc(N/N=C/c2ccc(O)cc2O)nc1`, in the assay with HEK293, the AC50 was 5.04 µM (active). Further, the EC50 in [4] is > 160 µM (inactive); in “cells [13]”, > 350 µM (not active); in the assay “cells [14]” it was 4.61 µM (active); in assay [5], 0.945 µM (active); in [6] it was > 180 µM (inactive); in assay [7], 38.5 µM (active). The 50% inhibitory concentration (IC50) at Nonstructural protein 1 is 12.1 µM (active); in assay [15] it was 24.3 µM (active).

In the case of `COc1cc2c(cc1O)CC[n+]1cc3c(OC)c(OC)ccc3cc1-2` [JATRORRHIZINE], the IC50 at Large T antigen is 10.1 µM (active). In addition, the EC50 is 2.91 µM (active) in assay [5] and > 160 µM (inactive) in [7]. Moreover, the AC50 in assay [8] was 15.2 µM (active).
